“Also recorded” adds a separate entry of the source. Read-outs that look alike come from different tables or passages of the source. Where a SMILES comes first, the peptide text is derived from it. Where no end group is shown, it is not given here.

As a reminder, the IC50 is the concentration that inhibits the measured activity by half.

Assay [1] concerns human umbilical vein endothelial cells (HUVECs). Put plainly: NO production in HUVECs (Griess reagent). In kind it is cell-based. To be noted: 3 h, 540 nm, compared with control. Here is the method:
Cultures of human umbilical vein endothelial cells (HUVEC, ATCC* CRL-1730) were incubated at 37 °C in a cell incubator supplied with 5% CO2. Cell media compositions were based on those used in a previous study. Furthermore, production of NO was analyzed using Griess reagent (1% sulphanilamide and 0.1% naphthylethylenediamine dihydrochloride in 2.5% phosphoric acid), according to the method described by Ko et al.. HUVEC were seeded in 96-well plates at 1 × 10* cells/mL; after pre-incubation (24 h) the cells were treated without or with three concentrations of peptides (25, 50, and 100 μg/mL) for 3 h. Then the cells were treated with Griess reagent and incubated at 37 °C for 10 min in the dark. The […] was quantified using a microplate reader at 540 nm.
Background: Nitrite, measured by Griess reagent, commonly stands in for NO production.

In assay [2] the test system is Akt (protein kinase B) in HUVECs. Put plainly: Phosphorylation of Akt in HUVECs, Western blot. Type of assay: cell-based, human. To be noted: for phosphorylation level of Akt (in words): 25, 50, and 100 μg/mL, HUVECs pretreated 24 h, triplicate. Here is the method: (§1) HUVECs were seeded on 6-well plates at a concentration of 1 × 10* cells/mL. Sixteen hours after seeding, the cells were pretreated with the peptides for 24 h. The experimental procedure was completed as previously described. The primary antibodies (p-Akt, p-eNOS, and β-actin) were used at 1:1000 dilutions and incubated with the membrane at 4 °C overnight. The secondary antibodies were used at 1:3000 dilutions. All antibodies were purchased from Cell Signaling Technology (Beverly, MA, USA).
A general note: In western blotting, separated proteins are transferred to a membrane and probed.

The test system of assay [3] is spontaneously hypertensive rats (SHRs). The assay can be described thus: Systolic blood pressure after oral administration in SHRs (tail-cuff). As to conditions: for change in blood pressure, overall result (in words): oral administration, 50 mg/kg, SHRs, time not stated; for systolic blood pressure (SBP): 3 h after oral administration, 50 mg/kg in 1 mL saline, 6 SHRs per group, saline group 200–210 mmHg, mean ± SD. In kind it is in vivo. Here is the method:
SHRs with tail SBP over 180 mmHg were obtained from SLC Inc. (Shizuoka, Japan). Seven-week-old male, specific pathogen-free SHRs of approximately 300 g body weight were raised under room temperature (25 °C) with a 12-h light/dark cycle. The rats were fed a normal diet and tap water, with ad libitum feeding. All animals were administrated the dissolved samples in saline solution. The rats were divided into five groups comprised of a control group (saline); a group treated with peptide from sardine (positive control); and groups treated with any of three peptides (IVDR, WYK, and VASVI). Each was orally administered to 6 SHRs at a dose of 50 mg/kg which was dissolved in 1 mL saline. SBP was measured by a tail-cuff method before administration and at 3, 6, and 9 h post-administration using a CODA™ blood pressure monitor (Kent Scientific Corp., Torrington, CT, USA). The animal experiment received approval from the Animal Care and Use Committee of the Jeju National University (Approval NO. 2017-0017) and all experiments were performed in accordance with the guidelines.

For assay [4], the target named is T1, Angiotensin I-converting enzyme (ACE) (Homo sapiens, UniProt P12821). The assay can be described thus: ACE inhibitory activity assay (Dojindo ACE kit-WST). Type of assay: biochemical. Set-up: purchased Dojindo (Kumamoto, Japan). To be noted: for IC50: mean ± SD of triplicate experiments, read-out: IC50 value of ACE inhibition. As for the experimental part: The inhibitory activity of ACE was measured using the Dojindo ACE kit-WST (Kumamoto, Japan) in accordance with the manufacturer’s protocols. The principles of the kit have been described in a previous study.
The inhibitory ratios were calculated as follows:Inhibition rate (%) = [(Control − Sample)/(Control − Blank)] × 100(1) where IC50 is the concentration of inhibitor required for 50% inhibition of an enzymatic activity.
Target sequence in this assay (P12821 30-1306, species assumed): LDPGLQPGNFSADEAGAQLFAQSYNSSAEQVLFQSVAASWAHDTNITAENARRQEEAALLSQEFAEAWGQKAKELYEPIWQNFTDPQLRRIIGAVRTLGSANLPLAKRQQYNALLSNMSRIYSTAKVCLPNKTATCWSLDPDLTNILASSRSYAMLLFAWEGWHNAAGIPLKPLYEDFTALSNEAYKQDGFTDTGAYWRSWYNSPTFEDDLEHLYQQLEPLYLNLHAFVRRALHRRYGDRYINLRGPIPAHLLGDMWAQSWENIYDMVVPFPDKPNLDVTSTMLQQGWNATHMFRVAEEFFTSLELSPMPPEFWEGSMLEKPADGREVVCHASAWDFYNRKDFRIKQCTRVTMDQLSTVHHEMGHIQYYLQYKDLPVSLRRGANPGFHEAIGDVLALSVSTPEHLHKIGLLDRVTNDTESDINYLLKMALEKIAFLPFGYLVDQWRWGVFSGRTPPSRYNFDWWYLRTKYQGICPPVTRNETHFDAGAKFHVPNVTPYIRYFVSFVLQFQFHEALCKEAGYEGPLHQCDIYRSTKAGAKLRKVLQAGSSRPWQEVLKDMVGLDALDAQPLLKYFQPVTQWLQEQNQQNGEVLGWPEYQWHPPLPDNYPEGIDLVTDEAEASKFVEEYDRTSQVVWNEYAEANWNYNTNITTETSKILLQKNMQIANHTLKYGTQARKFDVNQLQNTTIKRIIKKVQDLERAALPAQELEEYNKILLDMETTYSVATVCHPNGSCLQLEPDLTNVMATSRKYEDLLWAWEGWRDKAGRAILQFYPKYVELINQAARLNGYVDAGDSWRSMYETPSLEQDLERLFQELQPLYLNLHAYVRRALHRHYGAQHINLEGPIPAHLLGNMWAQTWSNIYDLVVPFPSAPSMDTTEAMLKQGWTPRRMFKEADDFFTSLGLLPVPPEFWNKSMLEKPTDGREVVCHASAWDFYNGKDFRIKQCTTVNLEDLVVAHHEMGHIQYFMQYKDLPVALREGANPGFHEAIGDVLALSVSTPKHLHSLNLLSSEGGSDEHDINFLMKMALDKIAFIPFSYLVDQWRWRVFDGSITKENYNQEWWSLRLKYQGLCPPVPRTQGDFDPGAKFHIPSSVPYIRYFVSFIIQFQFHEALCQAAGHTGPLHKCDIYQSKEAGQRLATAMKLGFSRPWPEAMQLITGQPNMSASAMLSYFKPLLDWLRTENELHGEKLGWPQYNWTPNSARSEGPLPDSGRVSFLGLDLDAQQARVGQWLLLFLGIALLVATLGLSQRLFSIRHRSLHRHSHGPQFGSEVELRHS

The subject of assay [5] is endothelial nitric oxide synthase (eNOS) in HUVECs. The assay can be described thus: Phosphorylation of eNOS in HUVECs, Western blot. Type of assay: cell-based, human. To be noted: positive control or overall result, concentration not given. As for the experimental part:
as §1

For assay [6], the target named is T1, Angiotensin I-converting enzyme (ACE). Further details: purchased Dojindo (Kumamoto, Japan). To be noted: cited from earlier work. From the text: Table 1 IC50 values of ACE inhibitory peptides derived from Paralichthys olivaceus surimi. | column: IC50 Value (µM) || Several studies have investigated the relationship between protein intake and blood pressure. […] Our previous study confirmed that surimi manufactured from olive flounder could be used as a beneficial ingredient in dietary protein due to its antihypertensive effect. The study also identified novel peptides derived from surimi. ACE inhibition plays a major physiological role in regulating blood pressure. The current study investigated the ACE inhibition activity of the novel peptides ...
Target sequence in this assay (P12821 30-1306, species assumed): as above

Assay [7] has the same target.
Target sequence in this assay (P12821 30-1256): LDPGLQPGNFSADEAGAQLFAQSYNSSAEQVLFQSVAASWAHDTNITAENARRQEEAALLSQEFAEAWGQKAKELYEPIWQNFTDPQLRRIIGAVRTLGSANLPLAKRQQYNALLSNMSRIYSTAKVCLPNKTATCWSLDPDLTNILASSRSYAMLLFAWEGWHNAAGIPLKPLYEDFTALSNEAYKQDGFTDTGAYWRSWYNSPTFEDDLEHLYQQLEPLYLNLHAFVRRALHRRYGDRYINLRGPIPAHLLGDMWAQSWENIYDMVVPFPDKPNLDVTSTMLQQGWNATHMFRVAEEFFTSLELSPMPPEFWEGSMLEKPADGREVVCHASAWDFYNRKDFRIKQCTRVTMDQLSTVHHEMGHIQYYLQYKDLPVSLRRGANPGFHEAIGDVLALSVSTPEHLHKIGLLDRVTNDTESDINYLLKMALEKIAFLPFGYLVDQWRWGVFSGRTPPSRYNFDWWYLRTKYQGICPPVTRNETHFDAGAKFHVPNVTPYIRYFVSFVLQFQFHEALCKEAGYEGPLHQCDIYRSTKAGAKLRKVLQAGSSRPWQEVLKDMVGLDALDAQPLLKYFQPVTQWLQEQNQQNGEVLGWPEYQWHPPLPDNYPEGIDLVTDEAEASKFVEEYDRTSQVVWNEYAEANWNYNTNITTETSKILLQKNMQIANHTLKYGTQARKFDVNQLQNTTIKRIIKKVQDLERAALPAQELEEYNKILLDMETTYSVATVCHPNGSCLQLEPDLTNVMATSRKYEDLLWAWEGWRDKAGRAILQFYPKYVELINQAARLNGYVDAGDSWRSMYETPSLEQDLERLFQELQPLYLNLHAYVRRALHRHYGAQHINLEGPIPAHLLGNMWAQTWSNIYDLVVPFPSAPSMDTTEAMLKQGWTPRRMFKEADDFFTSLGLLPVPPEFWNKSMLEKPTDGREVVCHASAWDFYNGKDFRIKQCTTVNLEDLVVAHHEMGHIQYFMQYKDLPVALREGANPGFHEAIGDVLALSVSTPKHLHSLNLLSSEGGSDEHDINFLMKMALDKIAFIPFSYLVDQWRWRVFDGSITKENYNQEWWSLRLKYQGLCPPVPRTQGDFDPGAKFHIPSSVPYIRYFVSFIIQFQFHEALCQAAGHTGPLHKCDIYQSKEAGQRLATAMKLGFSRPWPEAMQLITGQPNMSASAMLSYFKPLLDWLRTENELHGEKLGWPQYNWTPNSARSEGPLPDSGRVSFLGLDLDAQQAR
Setting [8] is: peptides at 25–100 μg/mL, means ± SD of triplicate.
Where [9] appears, read: literature peptides for comparison, read-out: IC50 of ACE inhibitory peptides isolated from food proteins.

As to `CC[C@H](C)[C@H](N)C(=O)N[C@H](C(=O)N[C@@H](CC(=O)O)C(=O)N[C@@H](CCCNC(=N)N)C(=O)O)C(C)C` [IVDR, Isoleucine-Valine-Aspartic acid-Arginine] (H-IVDR-OH), the “NO production in HUVECs (in words)” value in assay [1] (100 μg/mL) is listed as “increased the production of NO only slightly”. Also, the “phosphorylation level of Akt (in words)” value in assay [2] is reported as “significantly increased”. For the same molecule, the “change in blood pressure, overall result (in words)” value (shortened to “change in blood pressure”) in assay [3] is given as “effective at decreasing SBP in SHRs”. In addition, in assay [4], the “ACE inhibitory activity (in words)” value was “high Angiotensin I-converting Enzyme (ACE) inhibition activity; also recorded: high ACE inhibitory activity” and the IC50 was 46.9 ± 0.32 µM.

As to `NCCCC[C@H](NC(=O)[C@H](Cc1ccc(O)cc1)NC(=O)[C@@H](N)Cc1c[nH]c2ccccc12)C(=O)O` [WYK, Tryptophan-Tyrosine-Lysine] (H-Trp-Tyr-Lys-OH), the “NO production in HUVECs (in words)” value in assay [1] (setting [8]) was “significantly higher”. Further, the “phosphorylation level of Akt (in words)” value in assay [2] is reported as “significantly increased”. In addition, in assay [3], the “systolic blood pressure (SBP)” value amounted to 173 ± 4 mmHg and the “change in blood pressure” value is “effective at decreasing SBP in SHRs”. Besides, in assay [4], the “ACE inhibitory activity (in words)” value is reported as “high Angiotensin I-converting Enzyme (ACE) inhibition activity; also recorded: high ACE inhibitory activity” and the IC50 was found to be 33 ± 0.68 µM.

Take `[Ca+2]` [calcium, reference compound]: the “phosphorylation of eNOS (in words)” value in assay [5] was “profoundly increased”. Moreover, the “phosphorylation of Akt (in words)” value in assay [2] (HUVECs, positive control or overall result, concentration not given) was “profoundly increased”.

ALGPQFY [from stone fish]: in assay [6] (setting [9]), the IC50 is 12 µM.

Consider “ANSEVAQWR [from Trichiurus lepturus myosin]”, for which the IC50 in assay [6] (setting [9]) is 89.6 µM.

As for Ala-Ser-Leu [from silkworm pupa], the IC50 in assay [6] (setting [9]) was 102 µM.

Take “Arg-Val-Cys-Leu-Pro (RVCLP) [from lizard fish]”: the IC50 in assay [6] (setting [9]) is 175 µM.

For the molecule “EALVSQLTR [from Trichiurus lepturus myosin]”, in assay [6] (setting [9]), the IC50 was 91.5 µM.

On to “Phe-Gly-Als-Ser-Thr-Arg-Gly-Ala (FGASTRGA; printed 'Als' at position 3 read as a typo for Ala) [from Alaska pollock frame]”, for which the half-inhibitory concentration (IC50) in assay [6] (setting [9]) is 14.7 µM.

Turning to Trp-Tyr-Lys (WYK) (peptide), the IC50 of inhibition of ACE enzymatic activity (Dojindo ACE kit-WST) in assay [7] worked out at 33 µM.

Take “VASVI [VASVI, Valine-Alanine-Serine-Valine-Isoleucine]”: the “NO production in HUVECs (in words)” value in assay [1] (setting [8]) is “significantly higher”. The “phosphorylation level of Akt (in words)” value in assay [2] is “significantly increased”. Besides, in assay [3], the “systolic blood pressure (SBP)” value came to 181 ± 2 mmHg and the “change in blood pressure” value is given as “effective at decreasing SBP in SHRs”. Besides, in assay [4], the “ACE inhibitory activity (in words)” value is reported as “high Angiotensin I-converting Enzyme (ACE) inhibition activity; also recorded: high ACE inhibitory activity” and the IC50 is 32.7 ± 1.32 µM.

Regarding “Val-Tyr [Sardine peptide (Val-Tyr), reference compound]”, the 50% inhibitory concentration (IC50) in assay [6] (determined by Matsufuji et al., read-out: IC50 value of ACE inhibition (sardine peptide)) is 26 µM. In assay [3], the “systolic blood pressure (SBP)” value is recorded as 184 ± 2 mmHg and the “change in blood pressure” value is reported as “declined considerably”.

In assay [7], VASVI [Val-Ala-Ser-Val-Ile (VASVI)] had an IC50 of inhibition of ACE enzymatic activity (Dojindo ACE kit-WST) of 32.7 µM.

IVDR [Ile-Val-Asp-Arg (IVDR)]: the IC50 of inhibition of ACE enzymatic activity (Dojindo ACE kit-WST) in assay [7] worked out at 46.9 µM.

Values taken from paper PMC7278688, “Anti-Hypertensive Activity of Novel Peptides Identified from Olive Flounder (Paralichthys olivaceus) Surimi” (Foods, 2020).
